According to patent US20140243335A1, “SUBSTITUTED HYDOXAMIC ACIDS AND USES THEREOF” (Millennium Pharmaceuticals, Inc., priority 2010, published 2014):

molecular target: T1, purified human HDAC6 (Homo sapiens, UniProt Q9UBN7); assay: HDAC6 Enzyme Assay; type: biochemical; settings: HDAC6 inhibition at a compound concentration of 0.412 μM; read-out: Percent Inhibition at 0.412 μM
T1 construct: purchased BPS Bioscience 5006
T1 sequence (Q9UBN7 1-1215): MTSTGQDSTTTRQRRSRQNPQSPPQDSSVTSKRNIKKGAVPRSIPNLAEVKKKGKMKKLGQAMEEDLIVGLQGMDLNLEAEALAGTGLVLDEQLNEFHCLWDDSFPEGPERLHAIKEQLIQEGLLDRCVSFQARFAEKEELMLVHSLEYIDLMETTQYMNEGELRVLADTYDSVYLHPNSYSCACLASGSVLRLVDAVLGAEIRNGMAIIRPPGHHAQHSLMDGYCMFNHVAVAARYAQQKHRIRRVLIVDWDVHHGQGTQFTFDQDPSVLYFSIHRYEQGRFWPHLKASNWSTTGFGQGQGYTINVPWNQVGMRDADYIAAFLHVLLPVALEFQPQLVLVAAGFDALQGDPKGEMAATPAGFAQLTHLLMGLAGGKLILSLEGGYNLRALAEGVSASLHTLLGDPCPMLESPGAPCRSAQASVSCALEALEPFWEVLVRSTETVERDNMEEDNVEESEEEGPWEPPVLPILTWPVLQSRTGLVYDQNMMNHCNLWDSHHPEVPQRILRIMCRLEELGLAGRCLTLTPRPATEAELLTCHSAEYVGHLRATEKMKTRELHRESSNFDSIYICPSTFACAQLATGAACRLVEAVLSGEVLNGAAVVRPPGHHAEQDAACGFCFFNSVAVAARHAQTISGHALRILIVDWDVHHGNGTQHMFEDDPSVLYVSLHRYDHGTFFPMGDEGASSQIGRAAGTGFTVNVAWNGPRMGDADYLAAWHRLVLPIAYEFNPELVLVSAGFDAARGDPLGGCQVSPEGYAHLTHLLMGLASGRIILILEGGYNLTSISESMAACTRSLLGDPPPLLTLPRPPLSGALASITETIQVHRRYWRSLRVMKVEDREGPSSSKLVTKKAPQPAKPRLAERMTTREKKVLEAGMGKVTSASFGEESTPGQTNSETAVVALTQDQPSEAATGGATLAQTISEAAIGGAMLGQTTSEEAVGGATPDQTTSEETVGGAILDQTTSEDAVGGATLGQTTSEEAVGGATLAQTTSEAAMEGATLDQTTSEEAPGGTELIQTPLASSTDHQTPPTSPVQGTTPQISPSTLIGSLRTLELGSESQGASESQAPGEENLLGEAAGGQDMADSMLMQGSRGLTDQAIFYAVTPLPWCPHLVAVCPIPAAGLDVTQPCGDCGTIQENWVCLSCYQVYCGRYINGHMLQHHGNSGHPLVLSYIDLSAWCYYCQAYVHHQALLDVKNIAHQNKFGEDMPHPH

inhibition at 0.412 µM	SMILES
95%	O=C(NO)c1ccc2c(c1)CCC(Oc1ccnc(NC(=O)C3CCNCC3)c1)C2 (stereo not drawn) [Compound I-225, N-[4-({6-[(hydroxyamino)carbonyl]-1,2,3,4-tetrahydronaphthalen-2-yl}oxy)pyridin-2-yl]piperidine-4-carboxamide]
34%	Cn1cccc1C(=O)NC1CCCc2cc(C(=O)NO)ccc21 (stereo not drawn) [Compound I-18, N-{6-[(hydroxyamino)carbonyl]-1,2,3,4-tetrahydronaphthalen-1-yl}-1-methyl-1H-pyrrole-2-carboxamide]
82%	CC1(C(=O)NC2CCc3ccc(C(=O)NO)cc3C2)CCNCC1 (stereo not drawn) [Compound I-114, N-{7-[(hydroxyamino)carbonyl]-1,2,3,4-tetrahydronaphthalen-2-yl}-4-methylpiperidine-4-carboxamide]
21%	O=C(CC1C[C@@H]2CC[C@H]1C2)NC1CCCc2cc(C(=O)NO)ccc21 (stereo partly drawn) [Compound I-26, 5-{[(1S,4R)-bicyclo[2.2.1]hept-2-ylacetyl]amino}-N-hydroxy-5,6,7,8-tetrahydronaphthalene-2-carboxamide]
65%	COc1ccccc1-c1cc(C(=O)N[C@H]2CCCc3cc(C(=O)NO)ccc32)[nH]n1 [Compound I-68, N-{(1S)-6-[(hydroxyamino)carbonyl]-1,2,3,4-tetrahydronaphthalen-1-yl}-3-(2-methoxyphenyl)-1H-pyrazole-5-carboxamide]
96%	O=C(Nc1ccccc1)NC1CCc2ccc(C(=O)NO)cc2C1 (stereo not drawn) [Compound I-94, 7-[(anilinocarbonyl)amino]-N-hydroxy-5,6,7,8-tetrahydronaphthalene-2-carboxamide]
92%	O=C(NO)c1ccc2c(c1)CCC(Oc1ccccc1)C2 (stereo not drawn) [Compound I-229, N-hydroxy-6-phenoxy-5,6,7,8-tetrahydronaphthalene-2-carboxamide]
56%	Cc1oc(-c2ccccc2)cc1C(=O)NC1CCc2cc(C(=O)NO)ccc2C1 (stereo not drawn) [Compound I-59, N-{6-[(hydroxyamino)carbonyl]-1,2,3,4-tetrahydronaphthalen-2-yl}-2-methyl-5-phenyl-3-furamide]
88%	CC(C)(C)OC(=O)N1CCC(NC(=O)c2cc(OC3CCc4cc(C(=O)NO)ccc4C3)ccn2)CC1 (stereo not drawn) [Compound I-223, tert-butyl 4-({[4-({6-[(hydroxyamino)carbonyl]-1,2,3,4-tetrahydronaphthalen-2-yl}oxy)pyridin-2-yl]carbonyl}amino)piperidine-1-carboxylate]
48%	O=C(NO)c1ccc2c(c1)CCCC2NC(=O)c1cc2cc(Cl)ccc2o1 (stereo not drawn) [Compound I-40, 5-chloro-N-{6-[(hydroxyamino)carbonyl]-1,2,3,4-tetrahydronaphthalen-1-yl}-1-benzofuran-2-carboxamide]
20%	CC1(C)CCC(C)(C)c2cc(C(=O)NO)ccc21 [Compound I-74, N-hydroxy-5,5,8,8-tetramethyl-5,6,7,8-tetrahydronaphthalene-2-carboxamide]
21%	Cc1cc(C)n(CC(=O)NC2CCCc3cc(C(=O)NO)ccc32)n1 (stereo not drawn) [Compound I-11, 5-{[(3,5-dimethyl-1H-pyrazol-1-yl)acetyl]amino}-N-hydroxy-5,6,7,8-tetrahydronaphthalene-2-carboxamide]
86%	O=C(NO)c1ccc2c(c1)CC(Nc1ccc(Cl)cc1)CC2 (stereo not drawn) [Compound I-83, 7-[(4-chlorophenyl)amino]-N-hydroxy-5,6,7,8-tetrahydronaphthalene-2-carboxamide]
54%	Cc1ccc(-c2cc(C(=O)N[C@H]3CCCc4cc(C(=O)NO)ccc43)[nH]n2)cc1 [Compound I-72, N-{(1S)-6-[(hydroxyamino)carbonyl]-1,2,3,4-tetrahydronaphthalen-1-yl}-3-(4-methylphenyl)-1H-pyrazole-5-carboxamide]
36%	O=C(NO)c1ccc2c(c1)CCCC2NC(=O)c1ccsc1 (stereo not drawn) [Compound I-3, N-{6-[(hydroxyamino)carbonyl]-1,2,3,4-tetrahydronaphthalen-1-yl}thiophene-3-carboxamide]
17%	CC(C)C(C(=O)NC1CCCc2cc(C(=O)NO)ccc21)c1ccccc1 (stereo not drawn) [Compound I-31, N-hydroxy-5-[(3-methyl-2-phenylbutanoyl)amino]-5,6,7,8-tetrahydronaphthalene-2-carboxamide]
88%	CC(C)(C)OC(=O)N1CCC(C)(C(=O)Nc2cc(OC3CCc4cc(C(=O)NO)ccc4C3)ccn2)CC1 (stereo not drawn) [Compound I-214, tert-Butyl 4-({[4-({6-[(hydroxyamino)carbonyl]-1,2,3,4-tetrahydronaphthalen-2-yl}oxy)pyridin-2-yl]amino}carbonyl)-4-methylpiperidine-1-carboxylate]
80%	O=C(NO)c1ccc2c(c1)CC(NCc1ccc(Cl)cc1)CC2 (stereo not drawn) [Compound I-76, 7-[(4-chlorobenzyl)amino]-N-hydroxy-5,6,7,8-tetrahydronaphthalene-2-carboxamide]
30%	O=C(NO)c1ccc2c(c1)CCCC2NC(=O)c1ccc(C(F)(F)F)cc1 (stereo not drawn) [Compound I-20, N-hydroxy-5-{[4-(trifluoromethyl)benzoyl]amino}-5,6,7,8-tetrahydronaphthalene-2-carboxamide]
71%	O=C(NO)c1ccc2c(c1)CC(Nc1ccncc1)CC2 (stereo not drawn) [Compound I-95, N-hydroxy-7-(pyridin-4-ylamino)-5,6,7,8-tetrahydronaphthalene-2-carboxamide]
62%	Cc1cc(C(=O)NC2CCc3cc(C(=O)NO)ccc3C2)c(C)n1Cc1cccs1 (stereo not drawn) [Compound I-48, N-{6-[(hydroxyamino)carbonyl]-1,2,3,4-tetrahydronaphthalen-2-yl}-2,5-dimethyl-1-(2-thienylmethyl)-1H-pyrrole-3-carboxamide]
36%	Cc1oc(S(=O)(=O)N2CCCCC2)cc1C(=O)NC1CCCc2cc(C(=O)NO)ccc21 (stereo not drawn) [Compound I-37, N-{6-[(hydroxyamino)carbonyl]-1,2,3,4-tetrahydronaphthalen-1-yl}-2-methyl-5-(piperidin-1-ylsulfonyl)-3-furamide]
28%	Cc1oc(S(=O)(=O)N2CCCC2)cc1C(=O)NC1CCCc2cc(C(=O)NO)ccc21 (stereo not drawn) [Compound I-22, N-{6-[(hydroxyamino)carbonyl]-1,2,3,4-tetrahydronaphthalen-1-yl}-2-methyl-5-(pyrrolidin-1-ylsulfonyl)-3-furamide]
90%	CC(C)(C)C(=O)N[C@H]1CCc2ccc(C(=O)NO)cc2C1 [Compound I-75, (7S)-7-[(2,2-dimethylpropanoyl)amino]-N-hydroxy-5,6,7,8-tetrahydronaphthalene-2-carboxamide]
62%	O=C(NO)c1ccc2c(c1)CCC(c1ccccc1)C2 (stereo not drawn) [Compound I-100, N-hydroxy-6-phenyl-5,6,7,8-tetrahydronaphthalene-2-carboxamide]
35%	CCc1cc(C(=O)NC2CCCc3cc(C(=O)NO)ccc32)n(C)n1 (stereo not drawn) [Compound I-2, 3-ethyl-N-{6-[(hydroxyamino)carbonyl]-1,2,3,4-tetrahydronaphthalen-1-yl}-1-methyl-1H-pyrazole-5-carboxamide]

SMILES	inhibition at 0.412 µM
CCCC(=O)N1C2CCC1c1cc(C(=O)NO)ccc12 (stereo not drawn) [Compound I-207, 9-butyryl-N-hydroxy-1,2,3,4-tetrahydro-1,4-epiminonaphthalene-6-carboxamide]	25%
CC1(C(=O)N2C3CCC2c2cc(C(=O)NO)ccc23)CCCCC1 (stereo not drawn) [Compound I-196, N-hydroxy-9-[(1-methylcyclohexyl)carbonyl]-1,2,3,4-tetrahydro-1,4-epiminonaphthalene-6-carboxamide]	32%
COc1ccc(C(=O)N2C3CCC2c2cc(C(=O)NO)ccc23)cc1 (stereo not drawn) [Compound I-198, N-hydroxy-9-(4-methoxybenzoyl)-1,2,3,4-tetrahydro-1,4-epiminonaphthalene-6-carboxamide]	60%
O=C(NO)c1ccc2c(c1)C1CCC2N1C(=O)c1sc2ccccc2c1Cl (stereo not drawn) [Compound I-203, 9-[(3-chloro-1-benzothien-2-yl)carbonyl]-N-hydroxy-1,2,3,4-tetrahydro-1,4-epiminonaphthalene-6-carboxamide]	53%
